In paper PMC11477289, “Low-Basicity 5-HT6 Receptor Ligands from the Group of Cyclic Arylguanidine Derivatives and Their Antiproliferative Activity Evaluation” (International Journal of Molecular Sciences, 2024):

Columns and labels:
human 5-HT6 = biological target: T1, human 5-HT6 (Homo sapiens, UniProt P50406); assay: [3H]-LSD radioligand binding assay, 5-HT6R; details: HEK293 expressing human 5-HT6R, read-out: 5-HT6 Ki
T1 construct: expressed in transfected cells
Procedure: Next, the ligands’ affinity for the 5-HT6 receptors was evaluated in the [^3H]-LSD radioligand binding assay. Experiments were performed in a stable HEK293 cell line expressing the human 5-HT6R.
The pellets were stored at −80 °C.

HEK293 = assay: Cytotoxic activity on HEK293; assay type: cell-based; details: Homo sapiens
Text: Table 6 Extended receptor affinity study, with functional tests and cytotoxic activity of selected compounds on HEK293. | column: HEK293 / IC50 [µM]

[1] = biological target: human serum albumin (HSA) (Homo sapiens, UniProt P02768); assay: Binding to HSA, Chiralpak HSA column; details: Chiralpak HSA column
Chain of human serum albumin (HSA) (P02768 25-609): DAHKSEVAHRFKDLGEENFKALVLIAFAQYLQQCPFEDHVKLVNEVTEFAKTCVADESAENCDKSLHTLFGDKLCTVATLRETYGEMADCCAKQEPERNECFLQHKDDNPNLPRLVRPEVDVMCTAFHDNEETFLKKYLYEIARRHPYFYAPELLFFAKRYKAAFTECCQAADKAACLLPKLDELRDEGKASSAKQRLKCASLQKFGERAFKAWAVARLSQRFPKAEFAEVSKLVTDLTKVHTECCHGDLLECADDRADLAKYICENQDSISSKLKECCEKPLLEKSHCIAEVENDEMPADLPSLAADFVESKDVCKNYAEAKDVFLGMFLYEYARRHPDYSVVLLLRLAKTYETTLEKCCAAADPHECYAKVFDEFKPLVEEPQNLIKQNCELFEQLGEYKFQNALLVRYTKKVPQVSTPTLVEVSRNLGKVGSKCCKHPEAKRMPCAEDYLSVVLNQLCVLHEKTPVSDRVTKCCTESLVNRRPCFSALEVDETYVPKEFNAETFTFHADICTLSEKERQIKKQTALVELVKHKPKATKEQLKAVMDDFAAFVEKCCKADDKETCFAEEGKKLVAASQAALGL
Method in brief: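 HSA binding (%HSA) was estimated by HPLC on a Chiralpak HSA column at 30 °C and 0.9 mL/min. The gradient ran 0–20% isopropanol in 50 mM ammonium acetate over 15 min, then held 12 min. UV detection covered 190–300 nm, and values were calibrated against reference compounds, in triplicate.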

CYP3A4 = biological target: T2, CYP3A4 (Homo sapiens, UniProt P08684); assay: CYP3A4 P450-Glo assay (drug–drug interactions); assay type: biochemical; details: 0.01–25 µM
T2 construct: purchased Promega
T2 sequence (P08684 whole entry): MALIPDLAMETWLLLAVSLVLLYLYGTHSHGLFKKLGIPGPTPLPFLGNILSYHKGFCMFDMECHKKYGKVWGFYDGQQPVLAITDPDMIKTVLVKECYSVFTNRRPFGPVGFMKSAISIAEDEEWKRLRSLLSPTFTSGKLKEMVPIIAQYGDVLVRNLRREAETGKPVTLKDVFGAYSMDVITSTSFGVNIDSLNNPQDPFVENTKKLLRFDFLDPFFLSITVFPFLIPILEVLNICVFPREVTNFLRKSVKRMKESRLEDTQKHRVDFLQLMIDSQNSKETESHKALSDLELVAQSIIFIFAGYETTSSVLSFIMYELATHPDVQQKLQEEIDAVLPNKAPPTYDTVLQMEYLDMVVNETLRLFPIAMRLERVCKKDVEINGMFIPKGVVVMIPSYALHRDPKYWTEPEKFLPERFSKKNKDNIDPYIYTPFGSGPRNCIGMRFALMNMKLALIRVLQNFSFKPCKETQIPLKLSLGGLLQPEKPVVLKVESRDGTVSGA
Procedure: The potential risk of drug–drug interactions (DDIs) was examined in luminescence-based CYP3A4 and CYP2D6 P450-Glo assays (Promega, Madison, WI, USA) (Figure 2A,B).
The influence on CYP3A4 and CYP2D6 activity by ligands was analyzed with luminescent CYP3A4 P450-Glo and CYP2D6 P450-Glo^TM (Madison, WI, USA). The compounds were tested in triplicate. The bioluminescence signal was measured with a microplate reader, Spark Cyto (Tecan, Männedorf, Switzerland), in the luminescence mode. Compounds were tested in triplicate in the range of 0.01–25 µM for both isoforms’ P450 cytochrome. KE and QD were used as the reference compounds for CYP3A4 and CYP2D6, respectively.

Danio rerio = details: in vivo
Procedure: Selected compounds were evaluated for their cardiotoxicity on the Danio rerio experimental model following the OECD 236 test. […] To explore specific toxic effects of tested compounds on the central nervous systems, locomotor activity in the Danio rerio experimental model was evaluated. Studying the reaction of zebrafish larvae to light and dark conditions can be a valuable method for assessing neurotoxicity in behavioral studies. […] This response is characterized by a rapid, coordinated movement, often involving a quick burst of swimming or a change in direction. In our experimental model, we changed light into dark conditions. […] This behavior helps them avoid potential predators and maintain optimal environmental conditions.
To determine the toxicity of the compounds [66], the fish embryo toxicity (FET) test was performed on zebrafish (Danio rerio) according to OECD Test 236. […] At the end of the exposure period (96 hpf—hours postfertilization), acute toxicity was determined based on a positive outcome in any of the four visual indicators of lethality, including the coagulation of fertilized eggs, lack of somite formation, lack of detachment of the tailbud from the yolk sac, and lack of heartbeat. The value of LD50 was calculated. Heartbeats were recorded to observe cardiotoxic effects. […]

U87MG glioblastoma cells = assay: Antiproliferative activity (MTS), U87MG; details: Homo sapiens, U-87 MG, 72 h, read-out: IC50 Values U87MG
U-251 glioblastoma cells = assay: Antiproliferative activity (MTS), U-251; details: Homo sapiens, U-251, 72 h, read-out: IC50 Values U-251
5-HT5A receptor = 5-HT5A receptor (Homo sapiens, UniProt P47898); assay: [3H]-LSD radioligand binding assay, 5-HT5A
Chain of 5-HT5A receptor (P47898 whole entry): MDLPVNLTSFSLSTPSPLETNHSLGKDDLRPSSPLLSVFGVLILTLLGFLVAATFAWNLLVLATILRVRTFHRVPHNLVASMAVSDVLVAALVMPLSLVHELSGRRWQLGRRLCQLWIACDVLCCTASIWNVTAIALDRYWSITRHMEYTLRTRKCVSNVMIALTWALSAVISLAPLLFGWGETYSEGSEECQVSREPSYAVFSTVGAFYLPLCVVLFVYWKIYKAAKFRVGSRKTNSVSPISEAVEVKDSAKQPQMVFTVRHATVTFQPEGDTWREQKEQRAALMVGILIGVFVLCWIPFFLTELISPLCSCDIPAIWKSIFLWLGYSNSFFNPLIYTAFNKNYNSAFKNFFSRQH

T1 sequence (P50406 whole entry): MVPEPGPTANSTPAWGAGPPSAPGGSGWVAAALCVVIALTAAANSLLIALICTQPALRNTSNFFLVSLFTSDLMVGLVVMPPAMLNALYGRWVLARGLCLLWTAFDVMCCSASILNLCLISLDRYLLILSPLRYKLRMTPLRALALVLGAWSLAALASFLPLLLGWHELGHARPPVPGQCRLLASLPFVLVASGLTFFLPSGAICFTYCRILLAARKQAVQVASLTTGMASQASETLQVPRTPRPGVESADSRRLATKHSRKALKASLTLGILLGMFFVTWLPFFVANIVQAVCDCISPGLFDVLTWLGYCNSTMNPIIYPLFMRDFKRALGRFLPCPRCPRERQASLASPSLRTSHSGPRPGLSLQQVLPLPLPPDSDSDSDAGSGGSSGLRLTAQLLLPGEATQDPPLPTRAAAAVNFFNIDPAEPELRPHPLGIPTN

Structure (SMILES)	Ki (human 5-HT6) [µM]	IC50 (HEK293) [µM]	%HSA [1] [%]	logKHSA [1]	drug–drug interactions, CYP3A4 activity (CYP3A4)	cardiotoxicity (heart rate) (Danio rerio)	IC50 (U87MG glioblastoma cells) [µM]	IC50 (U-251 glioblastoma cells) [µM]	Ki (5-HT5A receptor) [µM]
CC1NC(NS(=O)(=O)c2cccc3ccccc23)=Nc2cccc(Cl)c21 (stereo not drawn) [PR 68, N -(5-chloro-4-methyl-3,4-dihydroquinazolin-2-yl)naphthalene-1-sulfonamide]	0.037 ± 0.008	81.8	97.7	1.5	should not exhibit drug–drug interactions	do not show cardiotoxic properties	> 25	> 25	1.11
CC1NC(NS(=O)(=O)c2cccc3ccccc23)=Nc2cccc(F)c21 (stereo not drawn) [PR 73, N -(5-fluoro-4-methyl-3,4-dihydroquinazolin-2-yl)naphthalene-1-sulfonamide]	0.043 ± 0.011		96.6	1.3		do not show cardiotoxic properties	> 25	> 25	
